One series relates to opiate μ-receptor. The conditions noted are these: sub-antinociceptive doses; cited from earlier work.
Series [1] relates to NALM 6 cells. Format: binding, human.
Series [2] addresses T1, EBI1 (Homo sapiens, UniProt P32248).
T1 sequence (P32248 25-378): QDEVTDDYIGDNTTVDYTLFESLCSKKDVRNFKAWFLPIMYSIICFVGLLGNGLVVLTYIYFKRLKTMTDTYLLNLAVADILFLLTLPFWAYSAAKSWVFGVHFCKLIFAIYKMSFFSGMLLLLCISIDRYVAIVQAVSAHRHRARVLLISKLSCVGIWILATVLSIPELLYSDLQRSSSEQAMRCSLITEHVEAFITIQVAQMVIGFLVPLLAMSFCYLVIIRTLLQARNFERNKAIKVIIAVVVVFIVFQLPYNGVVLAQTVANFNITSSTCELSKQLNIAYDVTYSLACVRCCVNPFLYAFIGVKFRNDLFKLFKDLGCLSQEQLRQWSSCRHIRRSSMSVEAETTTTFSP
As to the kind of experiment: biochemical.
Source text: (§1) Data are plotted as the concentration of free ^3 H-DPDPE (x-axis) vs specific binding of ^3 H-DPDPE (y-axis).

In series [3] the target is T1, EBI1.
Source text: as §1
The test system of another series is COS (Vector Control). Kind of series: cAMP accumulation in COS cells (vector control). The format is cell-based, monkey. The following applies: COS (Vector Control); MET-ENK 0.01 nM, naloxone 10 μM, forskolin 0.1 μM; controls 40.2 and 38.8. On the technique in general: cAMP levels reflect the balance of adenylyl cyclase and phosphodiesterase activity.
Series [4] deals with T1, EBI1. The following applies: COS (EBI 1); MET-ENK 0.01 nM, naloxone 10 μM, forskolin 0.1 μM; controls 61.2 and 63.5.
For series [5], the system named is human T cells. As to the kind of experiment: Migration of human peripheral blood T cells. Format: cell-based.
Another series concerns LAZ 221 cells. Kind of series: Flow cytometry of surface molecule expression on LAZ 221 cells. The format is cell-based, human. The following applies: LAZ 221, 100 fold excess of naloxone. As to the method:
FIG. 4, Panels A-C. […] Data are presented as mean fluorescence intensities measured for 10,000 cells labeled with anti-CD9 or CD10 mAb. In Panel A, the NALM 6 Cells were incubated with MET-ENK (10^-7 M) for the times indicated. In Panel B, the LAZ 221 cells were incubated with MET-ENK at the doses indicated for 5 minutes at 37° C. […] The anti-CD9 and anti-CD10 mAb used for these experiments were of the IgG2a isotype.
Immunofluorescence Staining and Flow Cytometric Analysis of Cell Surface Molecules: Cells were resuspended at 1×10^6 /ml in PBS and then incubated for periods of 5 to 120 minutes at 37° C. with MET-ENK at doses of 0 to 10^-5 M. Incubations were terminated by transferring samples to an ice bath and then pelleting the cells by centrifugation at 1800 rpm for 5 minutes at 4° C.
Immunofluorescence staining was carried out in 4-ml tubes maintained in an ice water bath. […] Cells were subsequently fixed within a 2% solution of formalin and maintained in the dark at 10° C. until analyzed.
Flow cytometric analysis was performed using a FACS SCAN Flow Cytometer (Becton Dickinson, Mountain View, Calif.) equipped with a HP9000 Series computer and the Lysys System software analysis package. Data were collected as histograms depicting the fluorescence intensity for 5,000 to 10,000 cells per sample.
The non-binding IgG1 MOPC myeloma protein, anti-macrophage/monocyte specific CD14 (MO2; IgG2) and anti-T cell specific CD3 (OKT3; IgG2a) mAb were employed as nonreactive controls for measuring the autofluorescence of B cells.
(In general: In flow cytometry, cells or beads pass a laser one at a time.)

For series [6], the system named is NALM 6 cells. Kind of series: Light scatter analysis of morphological response of NALM 6 cells. Format: cell-based, human. As to the method: FIG. 2, Panels A and B. Methionine-enkephalin induces a morphological change in NALM 6 cells. […] Analysis of forward and right angle light scatter was performed using a Becton Dickinson FACS SCAN flow cytometer as described (Sklar et al., 1984). Histograms of light scatter were obtained by analyzing 10,000 cells per sample. Data are expressed as mean channel number (y-axis) vs concentration of MET-ENK (x-axis).
Forward and right angle light scatter analysis of the morphological response to MET-ENK: The effect of MET-ENK on cell morphology were measured using flow cytometric analysis of forward and right angle light scatter as previously described (Sklar et al., 1984). For these studies 10^6 cells were resuspended in one-ml of PBS, activated by the addition of MET-ENK or maintained in the PBS buffer alone, and then, incubated for 5 minutes at 37° C. […] Samples were analyzed on a Becton Dickinson FACS SCAN flow cytometer with excitation at 488 nm (Sklar et al., 1984). Histograms of light scattering were obtained by analyzing 10,000 cells for each sample. Data analysis was performed using the Lysys System software package.

Series [7] has as its system NALM 6 cells. As to the kind of experiment: MET-ENK-FITC binding to NALM 6 cells (flow cytometry, Scatchard). The conditions noted are these: 5 μM naloxone. Details: species or system human.
Series [8] has as its system NALM 6 cells. As to the kind of experiment: Migration (chemotaxis) of NALM 6 pre-B ALL cells. The format is cell-based, human. The following applies: for % Response (with/without naloxone): 90 min, 10 µM.
A further series can be described thus: in vitro. The following applies: human, nalm 6 cells.
The subject of series [9] is NALM 6 cells. Kind of series: [Ca^2+ ]i response of NALM 6 / leukemia cells (Indo-1, flow cytometry). The format is cell-based, human. The procedure: FIG. 15, Panels A-C. […] Cells were labeled with Indo-1 as previously described (Rabinovitch et al., 1986), washed twice in serum-free medium and held at 4° C. until flow cytometric analysis. The violet/blue fluorescence ratio was measured using previously described methods (Rabinovitch et al., 1986). Nonstimulated cells (measured in medium, alone) were used to establish a relative violet/blue ratio arbitrarily set at 1.0 as previously described (Rabinovitch). Calibration of [Ca^2+ ]i was carried out as previously described by Rabinovitch et al (1986) using the formula: [formula]
Rmax values were determined by measuring the maximum shift in indo violet/blue fluorescence for cells treated with 4 μM ionomycin. Rmin was measured as the minimum ratio for the violet blue fluorescence of ionomycin treated cells following the addition of 8 mM EGTA. […] The Kd (effective dissociation constant) was set at 250 nM.

Series [10] has as its system freshly isolated lymphocytes and EBV transformed cell lines. The following applies: Borboni et al., 1989; cited from earlier work.
Series [11] relates to lymphocytes and macrophages. The following applies: injection into cerebroventricles of rodents; cited from earlier work.
Series [12] relates to human T cells. The following applies: Heagy et al., 1990; cited from earlier work.
Another series relates to PMN. The following applies: Falke and Fischer, 1985; cited from earlier work.
A further series relates to PBMC. The conditions noted are these: cited from earlier work.

Entries after “also recorded” stand apart in the source; their conditions may differ. Bounds are passed on as bounds.

On to `CC1(C)SSC(C)(C)[C@@H](NC(=O)[C@@H](N)Cc2ccc(O)cc2)C(=O)NCC(=O)N[C@@H](Cc2ccccc2)C(=O)N[C@H]1C(=O)O` [DPDPE, [D-Pen^2,5]enkephalin], for which the “effect on morphine antinociception” value in the series on opiate μ-receptor is given as “enhance the antinociception mediated via the opiate μ-receptor agonist morphine”. Also, the “specific binding, % of total” value with NALM 6 cells [1] was 50-80%; in the series with Jurkat cells, 50-60%. The compound also yielded a Kd at EBI1 [2] of 0.2 nM. Moreover, on EBI1 [3], the “binding to membranes of COS cells expressing lymphocyte R7G” value was “specific, high affinity binding”.
For `C=CCN1CC[C@]23c4c5ccc(O)c4O[C@H]2C(=O)CC[C@@]3(O)[C@H]1C5` [Naloxone], the cAMP with COS (Vector Control) is reported as 31.4 fmoles/cell × 10^3; on EBI1 [4], 76.4 fmoles/cell × 10^3. Also, the “human lymphocyte / T cell migration” value with human T cells [5] is “blocked the T cell chemotaxis to MET-ENK”. Besides, in the series with LAZ 221 cells, the “effect on MET-ENK induction of CD9” value was “totally blocked”. Besides, the “morphological response (light scatter) of NALM 6 cells” value in the series with NALM 6 cells [6] (5 minutes at 37° C.) was “inhibited by preincubation with naloxone”. For the same compound, in the series with NALM 6 cells [6] (vs PBS alone), the “baseline light scatter, naloxone alone” value is listed as “shifted the baseline measurement below that for the control”. Further, the “effect of naloxone on MET-ENK(-FITC) binding” value in the series with NALM 6 cells [7] was “in the presence of naloxone this association is decreased; also recorded: blocked”. Moreover, the “reversal of agonist binding by naloxone” value with Jurkat cells (^3 H-DADLE, ^3 H-DPDPE, ^3 H-U69,593) is reported as “a portion of the binding of these highly selective opiate receptor agonists was reversed by naloxone”. Also, the “% Response (with/without naloxone)” value with NALM 6 cells [8] (MET-ENK 1 nM, naloxone 10^-5 M) is given as 43%; in the series with NALM 6 cells [8] (MET-ENK 100 nM, naloxone 10^-5 M), 42%; in the series with NALM 6 cells [8] (spontaneous locomotion, naloxone 10^-5 M) it was 82%. In addition, the “effect of naloxone on NALM 6 migration” value with NALM 6 cells [8] (migration to MET-ENK or spontaneous locomotion) was “inhibited the migration of NALM 6 cells to MET-ENK; also recorded: Spontaneous locomotion resulting from the random movement of unchallenged cells was equivalent for naloxone treated and nontreated cells”. Further, the “cell counts, migration to MET-ENK with naloxone” value with NALM 6 cells [8] (naloxone 10^-5 M, MET-ENK 100 nM) is 1476 cell counts. In addition, the “cell counts, spontaneous locomotion with naloxone” value in the series on NALM 6 cells [8] (naloxone 10^-5 M, no MET-ENK, without naloxone 1647) amounted to 1350 cell counts. The compound also displayed a viability at 10 µM in the series “in vitro” of at least 96%. Also, the “[Ca^2+ ]i response” value with NALM 6 cells [9] is given as “inhibited by naloxone”.
As to β-END: polypeptide β-endorphin, the “human lymphocyte / T cell migration” value with human T cells [5] is on record as “stimulate human lymphocyte migration”. In addition, the “sensitivity of binding to naloxone” value in series [10] is “insensitive to naloxone and not displaced by synthetic peptides containing MET-ENK residues”. The “lymphocyte and macrophage migration into ventricles” value in series [11] is “elicited lymphocyte and macrophage migration into the ventricles”. Besides, in the series with human T cells [12], the “human T cell migration” value is listed as “potent stimulants for the migration of isolated human T cells”. In addition, the “onset of PMN morphological response” value in the series with PMN was at most 2 minutes. Also, the “blastogenic responses to T and B cell lectins” value in the series with PBMC (PBMC) is “augment the blastogenic responses of PBMC to both T and B cell lectins”. In addition, in the series with PBMC (lectin stimulated PBMC), the IFN-γ production entry was “enhance IFN-γ production”.

The Kd is the free concentration of one partner at which half of the binding sites on the other are occupied at equilibrium, for simple one-to-one binding. The low end stands for a tighter complex, the high end for a looser complex. As a reminder, the viability is a read-out of living cells in per cent, often relative to untreated cells. A high value points to better survival.
